Experimental findings from US11485742B2, “2-azaspiro[3.4]octane derivatives as M4 agonists” (NOVARTIS AG, priority 2019, dated 2022) are described below.

For orientation: EC50 means the concentration at which the effect is half-maximal.

Test [1] deals with T1, human cloned CHRM2 receptor (Homo sapiens, UniProt P08172).
T1 construct: expressed in transfected cells; host or cells: CHO-K1 (M2_CHO)
T1 sequence (P08172 1-466): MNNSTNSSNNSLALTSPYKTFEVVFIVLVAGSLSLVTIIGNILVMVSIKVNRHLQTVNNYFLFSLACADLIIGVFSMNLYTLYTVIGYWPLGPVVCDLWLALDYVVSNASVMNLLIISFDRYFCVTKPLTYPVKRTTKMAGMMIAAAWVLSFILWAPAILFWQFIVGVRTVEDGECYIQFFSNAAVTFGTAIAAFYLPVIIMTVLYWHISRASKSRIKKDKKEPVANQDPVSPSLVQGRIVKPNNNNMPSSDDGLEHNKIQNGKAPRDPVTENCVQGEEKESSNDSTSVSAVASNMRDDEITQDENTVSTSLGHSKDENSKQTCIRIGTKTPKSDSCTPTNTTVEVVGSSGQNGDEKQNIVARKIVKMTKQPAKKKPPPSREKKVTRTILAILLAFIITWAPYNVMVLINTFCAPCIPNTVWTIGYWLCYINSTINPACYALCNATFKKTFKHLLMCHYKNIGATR
Kind of test: CHRM2 Ca++ Flux Assay (M2_CHO cells, agonist mode). Type of test: cell-based. To be noted: M2 CHO cells; for EC50: agonist mode, geometric mean if tested more than once, read-out: M2 FDSS EC50; for Emax: read-out: M2 FDSS PA %. On the procedure:
(§1) The above examples were characterized by measuring the intracellular mobilization of Ca^++ ions caused by signaling events mediated by the receptor. The Intra-cellular Calcium flux levels were captured by the highly sensitive Ca^++ indicator, Calcium Assay Kit (BD Biosciences; Catalog Number 640178. The fluorescent activity from all receptors were monitored by the fluorescent imager, FDSS 7000EX (Hamamatsu) over a span of 3 minutes. The change in Calcium flux was readily captured upon activation with the muscarinic orthosteric agonist, Carbachol.
CHO-K1 cells stably expressing the human cloned CHRM2 receptor (M2_CHO cells) were grown and maintained in a monolayer culture with F12/HAM (Life Technologies) supplemented with 10% Fetal Bovine Serum, 1×Pen-Strep, and 0.4 mg/mL Geneticin in a humidified atmosphere (5% CO2) at 37° C. The cultures were grown to 80-90% confluency in T150 flasks (Corning) and washed with 1×DPBS and lifted with 0.05% Trypsin (Life Technologies). The cells were then spun (1K rpm, 3 minutes) and frozen using Recovery Cell Culture Freezing Media (Gibco Technologies). Cells were stored in liquid nitrogen and thawed a day before the assay.
Prior to the day of the assay, stable M2 CHO cells were thawed and plated on Greiner 384 well TC treated plate at a density of 12K cells/well and kept overnight in a humidified atmosphere (5% CO2) at 37° C. The following day, the cells were loaded with Ca^++ dye (BD Biosciences) using Loading Buffer (HBSS +Ca/+Mg, 20 mM HEPES, 2.5 mM Probenecid) and placed back in cell incubator for a minimum of 1 hour and maximum of 2 hours. After incubation, the dye was replaced with Assay Buffer (HBSS −Ca/−Mg, 20 mM HEPES, 2.5 mM Probenecid) supplemented with 20 μM ATP (Sigma Aldrich) and kept at room temperature for 60 minutes prior before running on cell imager. The FDSS 7000EX (Hamamatsu) was used to acquire Ca^++ traces from cells in response to compound treatment and the data was used to generate dose response curves in agonist mode. All compounds were serially diluted in DMSO then prepared in Assay Buffer for Ca^−+ flux studies. The dose response curves were generated from the average of triplicate wells obtained from each data point and used a non-linear regression of four parameter dose response algorithm. The Percent Activity (PA) was measured to EC100 of Carbachol.
(§2) If an Example was tested more than once in an assay, then the values below represent the geometric mean of the results from each independent experiment.

For test [2], the target named is T2, human cloned CHRM4 receptor (Homo sapiens, UniProt P08173).
T2 construct: expressed in transfected cells; host or cells: CHO-K1 (M4_CHO)
T2 sequence (P08173 1-479): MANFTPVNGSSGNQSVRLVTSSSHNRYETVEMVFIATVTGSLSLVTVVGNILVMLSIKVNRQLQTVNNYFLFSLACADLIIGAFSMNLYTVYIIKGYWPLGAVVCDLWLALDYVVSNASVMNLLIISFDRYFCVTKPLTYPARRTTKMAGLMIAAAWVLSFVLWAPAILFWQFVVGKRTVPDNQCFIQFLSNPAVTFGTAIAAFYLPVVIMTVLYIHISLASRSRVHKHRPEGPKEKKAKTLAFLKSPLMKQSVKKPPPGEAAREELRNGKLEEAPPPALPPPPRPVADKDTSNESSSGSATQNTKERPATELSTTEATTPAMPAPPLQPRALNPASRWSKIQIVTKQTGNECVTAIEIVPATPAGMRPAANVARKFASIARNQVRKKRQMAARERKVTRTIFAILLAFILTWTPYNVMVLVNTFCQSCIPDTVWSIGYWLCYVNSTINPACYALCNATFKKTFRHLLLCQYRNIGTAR
Kind of test: CHRM4 Ca++ Flux Assay (M4_CHO cells, agonist mode). It counts as cell-based. To be noted: for Emax: read-out: M4 FDSS PA %; for EC50: geometric mean if tested more than once, read-out: M4 FDSS EC50. On the procedure: as §1
CHO-K1 cells stably expressing the human cloned CHRM4 receptor (M4_CHO cells) were grown and maintained in a monolayer culture with F12/HAM (Life Technologies) supplemented with 10% Fetal Bovine Serum, 1X Pen-Strep, and 0.4 mg/mL Geneticin in a humidified atmosphere (5% CO2) at 37° C. The cultures were grown to 80-90% confluency in T150 flasks (Corning) and washed with 1×DPBS then lifted with 0.05% Trypsin (Life Technologies). The cells were harvested in growth media then spun (1K rpm, 3 minutes) and cryopreserved using Recovery Cell Culture Freezing Media (Gibco Technologies). Cells were stored in liquid nitrogen and thawed a day before the assay.
Prior to the day of the assay, stable M4_CHO cells were thawed and plated on 384 well black walled clear bottom TC treated plates (Greiner Cat #781091) at 12K cells/well using F12/HAM Media supplemented with 10% FBS (Life Technologies) and kept overnight in a humidified atmosphere (5% CO2) at 37° C. The next day, cells were loaded with 20 μL Ca^++ dye (BD Biosciences) using Loading Buffer (HBSS +Ca/+Mg, 20 mM HEPES, 2.5 mM Probenecid) and placed back in cell incubator for a minimum of 1 hour. After incubation, the dye was replaced with 45 μL Assay Buffer (HBSS −Ca/−Mg, 20 mM HEPES, 2.5 mM Probenecid) supplemented with 20 μM ATP (Sigma Aldrich) and kept at room temperature in the dark for 60 minutes before running on a cell imager. The FDSS 7000EX (Hamamatsu) was used to capture Ca^++ traces for a span of 3 minutes from cells treated with 11 point dose of compound in triplicate in order to generate dose response curves in agonist mode. All compounds were serially diluted in DMSO then prepared in Assay Buffer for Ca^++ flux studies. The dose response curves were generated from the average of triplicate wells obtained from each data point and used a non-linear regression of four parameter dose response algorithm. The Percent Activity (PA) was measured to EC100 of Carbachol.
as §2

Setting [3] is: Percent Activity (PA) measured to EC100 of Carbachol.

Some results are limits rather than exact numbers.

Take `Fc1ccc(OC[C@@H]2CCOC2)c(C2CCN([C@@H]3COC4(C3)CN(c3nnco3)C4)CC2)c1` [Example 1B, (S)-7-(4-(5-fluoro-2-(((R)-tetrahydrofuran-3-yl)methoxy)phenyl)piperidin-1-yl)-2-(1,3,4-oxadiazol-2-yl)-5-oxa-2-azaspiro[3.4]octane]: the EC50 in test [1] was 492 nM; in test [2], 10 nM. Moreover, the Emax in test [1] (setting [3]) is 39%; in test [2] (Percent Activity (PA)) it was 84%.

Turning to `Fc1cc(O[C@@H]2CCOC2)c(C2CCN([C@@H]3COC4(C3)CN(c3nncs3)C4)CC2)cc1F` [Example 5M, (S)-7-(4-(4,5-difluoro-2-(((R)-tetrahydrofuran-3-yl)oxy)phenyl)piperidin-1-yl)-2-(1,3,4-thiadiazol-2-yl)-5-oxa-2-azaspiro[3.4]octane], the EC50 is 415 nM in test [1] and 58 nM in test [2]. Moreover, the Emax came to 34% in test [1] (setting [3]) and 73% in test [2] (Percent Activity (PA)).

As to `COc1ccccc1C1CCN([C@@H]2COC3(C2)CN(c2ncns2)C3)CC1` [Example 5B, (S)-7-(4-(2-methoxyphenyl)piperidin-1-yl)-2-(1,2,4-thiadiazol-5-yl)-5-oxa-2-azaspiro[3.4]octane], the EC50 in test [1] is more than 25000 nM; in test [2], 87 nM. In addition, the Emax worked out at 0% in test [1] (setting [3]) and 59% in test [2] (Percent Activity (PA)).

For `Fc1ccc(OC2COC2)c(C2CCN([C@@H]3COC4(C3)CN(c3ncco3)C4)CC2)c1` [Example 4A, (S)-7-(4-(5-fluoro-2-(oxetan-3-yloxy)phenyl)piperidin-1-yl)-2-(oxazol-2-yl)-5-oxa-2-azaspiro[3.4]octane], the EC50 in test [1] came to 432 nM; in test [2], 4 nM. Also, the Emax came out at 21% in test [1] (setting [3]) and 80% in test [2] (Percent Activity (PA)).

Turning to `c1ccc(C2CCN([C@@H]3COC4(C3)CN(c3ncco3)C4)CC2)c(OC2CCOCC2)c1` [Example 4J, (S)-2-(oxazol-2-yl)-7-(4-(2-((tetrahydro-2H-pyran-4-yl)oxy)phenyl)piperidin-1-yl)-5-oxa-2-azaspiro[3.4]octane], the values for the EC50 in test [1] and in test [2] were more than 25000 nM and 30 nM, respectively. The Emax was found to be 0% in test [1] (setting [3]) and 82% in test [2] (Percent Activity (PA)).

In the case of `COCCOc1ccc(F)cc1C1CCN([C@@H]2COC3(C2)CN(c2nncs2)C3)CC1` [Example 5S, (S)-7-(4-(5-fluoro-2-(2-methoxyethoxy)phenyl)piperidin-1-yl)-2-(1,3,4-thiadiazol-2-yl)-5-oxa-2-azaspiro[3.4]octane], the values for the EC50 in test [1] and in test [2] were 4600 nM and 197 nM, respectively. Further, the figures for the Emax in test [1] (setting [3]) and in test [2] (Percent Activity (PA)) were 23% and 69%, respectively.

For `CC(C)(O)[C@H]1C[C@H](Oc2ccc(F)cc2C2CCN([C@@H]3COC4(C3)CN(c3nnco3)C4)CC2)C1` (single isomer, unassigned) [Example 2W, 2-((1S,3r)-3-(2-(1-((S)-2-(1,3,4-oxadiazol-2-yl)-5-oxa-2-azaspiro[3.4]octan-7-yl)piperidin-4-yl)-4-fluorophenoxy)cyclobutyl)propan-2-ol or 2-((1R,3s)-3-(2-(1-((S)-2-(1,3,4-oxadiazol-2-yl)-5-oxa-2-azaspiro[3.4]octan-7-yl)piperidin-4-yl)-4-fluorophenoxy)cyclobutyl)propan-2-ol], the EC50 in test [1] came to 3080 nM; in test [2] it was 87 nM. Also, in test [1] (setting [3]), the “M2 FDSS PA %” value came to 29%. For the same compound, the “M4 FDSS PA %” value in test [2] (Percent Activity (PA)) is 70%.

Regarding `Fc1ccc(C2CCOCC2)c(C2CCN([C@@H]3COC4(C3)CN(c3nnco3)C4)CC2)c1` [Example 3D, (S)-7-(4-(5-fluoro-2-(tetrahydro-2H-pyran-4-yl)phenyl)piperidin-1-yl)-2-(1,3,4-oxadiazol-2-yl)-5-oxa-2-azaspiro[3.4]octane], the figures for the EC50 in test [1] and in test [2] were 1920 nM and 63 nM, respectively. In addition, the results for the Emax in test [1] (setting [3]) and in test [2] (Percent Activity (PA)) were 48% and 84%, respectively.

Consider `Fc1cc(OCC2(F)COC2)c(C2CCN([C@@H]3COC4(C3)CN(c3ncco3)C4)CC2)cc1F` [Example 4P, (S)-7-(4-(4,5-difluoro-2-((3-fluorooxetan-3-yl)methoxy)phenyl)piperidin-1-yl)-2-(oxazol-2-yl)-5-oxa-2-azaspiro[3.4]octane], for which the EC50 in test [1] amounted to 10500 nM; in test [2] it was 5 nM. The Emax was 28% in test [1] (setting [3]) and 63% in test [2] (Percent Activity (PA)).

`Fc1cc(F)c(OC2CC3(COC3)C2)c(C2CCN([C@@H]3COC4(C3)CN(c3nnco3)C4)CC2)c1` [Example 2AA, (S)-7-(4-(2-((2-oxaspiro[3.3]heptan-6-yl)oxy)-3,5-difluorophenyl)piperidin-1-yl)-2-(1,3,4-oxadiazol-2-yl)-5-oxa-2-azaspiro[3.4]octane]: the EC50 in test [1] amounted to 7980 nM; in test [2] it was 210 nM. Besides, the Emax came to 22% in test [1] (setting [3]) and 16% in test [2] (Percent Activity (PA)).
